Test results as given in paper PMC7150870 (Toxins, 2020).
Where two headings read alike, the source gives them in different places. Marks after values point to notes of the source that are not given here.

How the values were obtained:
[1] = test system: HEK 293T cells; format: cell-based, human
[2] = target: T1, P-gp (Homo sapiens, UniProt P08183); conditions: cited from earlier work
[3] = test system: HEK293T cells; format: cell-based, human
[4] = test system: epithelial cell layers; conditions: cited from earlier work
[5] = test system: HepG2, Caco-2, RAW 264.7, and HEK 293T cells; conditions: read-out: IC50 range in studied cells
[6] = test system: various mammalian cells; conditions: cited from earlier work
[7] = test system: HEK293T; format: cell-based, human
[8] = test system: HepG2; format: cell-based, human
[9] = target: T1, P-gp
[10] = test system: Caco-2 cells
[11] = test system: RAW 264.7; format: cell-based, mouse
[12] = test system: Caco-2; format: cell-based, human
[13] = test system: TNF-α; conditions: cited from earlier work
[14] = 5.2–15.5 mM; cited from earlier work
[15] = test system: human fibroblasts; conditions: 50 µM for 24 h; cited from earlier work
[16] = test system: hepatocyte cells; conditions: cited from earlier work
[17] = test system: HEK 293T cells
[18] = human (Caco-2), mouse (RAW 264.7)

T1 sequence (P08183 whole entry, looked up): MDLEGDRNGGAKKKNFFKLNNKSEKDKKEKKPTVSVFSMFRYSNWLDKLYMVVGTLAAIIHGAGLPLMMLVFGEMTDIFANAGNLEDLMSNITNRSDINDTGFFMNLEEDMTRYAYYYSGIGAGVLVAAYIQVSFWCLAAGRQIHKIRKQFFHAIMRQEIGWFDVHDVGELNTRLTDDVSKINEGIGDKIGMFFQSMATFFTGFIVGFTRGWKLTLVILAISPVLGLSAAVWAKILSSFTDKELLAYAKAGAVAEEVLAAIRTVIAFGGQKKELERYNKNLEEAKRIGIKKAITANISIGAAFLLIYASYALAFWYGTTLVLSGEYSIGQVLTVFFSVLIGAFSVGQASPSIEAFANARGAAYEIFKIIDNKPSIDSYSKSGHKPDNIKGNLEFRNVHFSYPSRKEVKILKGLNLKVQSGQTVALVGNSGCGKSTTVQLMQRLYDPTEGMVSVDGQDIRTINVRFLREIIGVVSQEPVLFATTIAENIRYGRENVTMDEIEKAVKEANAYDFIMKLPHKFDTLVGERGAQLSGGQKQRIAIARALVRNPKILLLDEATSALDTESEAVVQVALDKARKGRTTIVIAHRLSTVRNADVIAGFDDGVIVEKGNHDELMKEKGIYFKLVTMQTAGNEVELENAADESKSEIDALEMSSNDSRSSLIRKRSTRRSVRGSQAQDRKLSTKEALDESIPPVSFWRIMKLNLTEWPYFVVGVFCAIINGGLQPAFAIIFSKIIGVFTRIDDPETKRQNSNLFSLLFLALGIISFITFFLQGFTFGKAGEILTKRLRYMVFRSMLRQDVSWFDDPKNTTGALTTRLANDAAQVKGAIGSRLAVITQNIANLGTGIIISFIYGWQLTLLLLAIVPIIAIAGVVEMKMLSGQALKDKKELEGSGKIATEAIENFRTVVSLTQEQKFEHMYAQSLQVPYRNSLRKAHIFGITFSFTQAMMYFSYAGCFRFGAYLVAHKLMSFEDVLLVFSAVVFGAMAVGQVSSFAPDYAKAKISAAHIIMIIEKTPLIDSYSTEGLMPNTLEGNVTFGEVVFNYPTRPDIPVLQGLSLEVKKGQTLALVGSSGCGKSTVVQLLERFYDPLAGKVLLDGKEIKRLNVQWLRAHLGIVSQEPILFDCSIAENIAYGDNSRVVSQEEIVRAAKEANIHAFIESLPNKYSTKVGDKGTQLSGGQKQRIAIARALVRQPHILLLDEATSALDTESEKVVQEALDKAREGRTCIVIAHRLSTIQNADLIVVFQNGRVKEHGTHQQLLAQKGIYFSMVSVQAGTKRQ

SMILES: CC(=O)OC[C@]12C[C@H](OC(=O)CC(C)C)C(C)=C[C@H]1O[C@@H]1[C@H](O)[C@@H](OC(C)=O)[C@@]2(C)[C@]12CO2 [T-2, T-2 toxin]
- combination index, silibinin 3.4 µM [1]: 0.99 ± 0.02 Add
- combination index, silibinin 6.8 µM [1]: 1.46 ± 0.14 Ant
- combination index, silibinin 13.6 µM [1]: 1.82 ± 0.06 Ant
- combination index, silibinin 27.3 µM [1]: 1.41 ± 0.11 Ant
- combination index, silibinin 54.5 µM [1]: 0.91 ± 0.04 Add
- combination index, silibinin 109.00 µM [1]: 1.00 ± 0.08 Add
- silibinin pretreatment concentration with the strongest antagonism [1]: 13.6 µM
- type of interaction, silibinin 3.4 µM [1]: 0.99 ± 0.02 Add (key: Syn: Combination index (CI) < 0.9; Add: 0.9 ≤ CI ≤ 1; Ant: CI > 1)
- type of interaction, silibinin 6.8 µM [1]: 1.46 ± 0.14 Ant (key: Syn: Combination index (CI) < 0.9; Add: 0.9 ≤ CI ≤ 1; Ant: CI > 1)
- type of interaction, silibinin 13.6 µM [1]: 1.82 ± 0.06 Ant (key: Syn: Combination index (CI) < 0.9; Add: 0.9 ≤ CI ≤ 1; Ant: CI > 1)
- type of interaction, silibinin 27.3 µM [1]: 1.41 ± 0.11 Ant (key: Syn: Combination index (CI) < 0.9; Add: 0.9 ≤ CI ≤ 1; Ant: CI > 1)
- type of interaction, silibinin 54.5 µM [1]: 0.91 ± 0.04 Add (key: Syn: Combination index (CI) < 0.9; Add: 0.9 ≤ CI ≤ 1; Ant: CI > 1)
- type of interaction, silibinin 109.00 µM [1]: 1.00 ± 0.08 Add (key: Syn: Combination index (CI) < 0.9; Add: 0.9 ≤ CI ≤ 1; Ant: CI > 1)
- P-gp substrate [2]: not a substrate of P-gp
- IC50 ([3]; read-out: IC50 halving the HEK293T cells viability): 7 nM
- transport through the epithelial cell layers [4]: ≤ 24%
- IC50 [5]: 3.57 to 13.4 nM
- IC50 [6]: 3 to 500 nM
- IC50 [7]: 3.87 ± 0.27 nM
- IC50 [8]: 11.4 ± 0.37 nM
- P-gp activation (ATP consumption) [9]: activated P-gp in dose-dependent manner
- metabolites found by non-target U-HPLC-MS analysis [10]: 3´-hydroxy, 3-hydroxy-15-deacetyl
- transepithelial transport, Apical Medium [10]: 11.63 ± 0.62^a %
- transepithelial transport, Basolateral Medium [10]: 28.13 ± 0.48^e %
- transepithelial transport, Caco-2 Cells [10]: 0.01 ± 0.00^a %
- transepithelial transport, Raw 264.7 Cells [10]: 0.01 ± 0.00^a %
- transepithelial transport, Total [10]: 39.77 ± 0.98^b %
- IC50 [11]: 3.57 ± 0.27 nM
- IC50 [12]: 13.4 ± 1.07 nM

SMILES: COc1cc(C2Oc3cc([C@H]4Oc5cc(O)cc(O)c5C(=O)[C@@H]4O)ccc3OC2CO)ccc1O (stereo partly shown) [Silibinin, silibinin, reference compound]
- decrease of cell viability compared to cells cultured with a single mycotoxin [1]: about 30%
- OTA-induced TNF-α level reduced to [13]: 70%
- doses completely blocking OTA-induced TNF-α [13]: 1 to 26 µM
- reduction of cell viability by sole silibinin treatment [3]: 45%
- amount of DNA in the comet tail compared to positive control [14]: reduced the amount of DNA in the comet tail
- cytotoxic effect [15]: no significant cytotoxic effect
- effect against OTA cytotoxicity [16]: protective effect
- percentage of DNA in comet tail with respect to the negative control [17]: did not induce genotoxic effects
- metabolites found by non-target U-HPLC-MS analysis [10]: sulfate derivative
- transepithelial transport, Apical Medium [10, 18]: 44.34 ± 1.96^cd %
- transepithelial transport, Basolateral Medium [10, 18]: 23.24 ± 1.79^de %
- transepithelial transport, Caco-2 Cells [10, 18]: 0.00 ± 0.00^a %
- transepithelial transport, Raw 264.7 Cells [10, 18]: 0.00 ± 0.00^a %
- transepithelial transport, Total [10, 18]: 67.58 ± 2.95^cd %
